Where a name gives a salt, the structure may show the parent alone.
What was measured:
Target C mRNA = test: Gene panel canonical junction qPCR assay, Target C CJ mRNA decrease; assay type: cell-based; conditions: Homo sapiens, canonical junction qPCR, read-out: Target C IC50 (decrease in CJ mRNA levels)
In short: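 A673 or K562 cells treated with compound; canonical exon-exon junction mRNA quantified by cDNA synthesis and RT-qPCR with junction-spanning primer/probe, normalized to GAPDH, GUSB or PPIA and DMSO (2^(−ΔΔCt)). Percent response from set ΔCt assay windows fitted to 4-parameter logistic; IC50 for CJ decrease.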

HiBiT-tagged MYB protein = test: HiBiT protein abundance assay, MYB (K562 HiBiT knock-in cells); assay type: cell-based, human; conditions: 24 hours
In short: (§1)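 Luminescent readout of HiBiT-tagged endogenous protein after lysis, following 24 h compound exposure of knock-in K562 lines at 37 °C. Ten 3-fold concentrations from 10 μM final, DMSO ≤0.25%. Four-parameter logistic fit of normalized response gives concentration halving abundance (IC50).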

HiBiT-tagged HTT protein = test: HiBiT protein abundance assay, HTT (K562 HiBiT knock-in cells); assay type: cell-based, human; conditions: 24 hours
In short: as §1

Target C = test: HiBiT protein abundance assay, Target C (K562 HiBiT knock-in cells); assay type: cell-based, human; conditions: 24 hours
In short: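 Protein abundance read by HiBiT lytic luminescence after 24 h compound exposure (37 °C) of knock-in K562 cells, 10000 cells/well in IMDM+1% FBS. Dosing: 10 points, 3-fold, top 10 μM final, ≤0.25% DMSO. Four-parameter logistic fit gave concentration reducing abundance to 50% of untreated control.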

K562 cells = test: Cell Titer Glo 2.0 cell viability assay in K562 cells; conditions: 72 hours
Protocol: Compounds described herein were screened for toxicity in K562 (human chronic myelogenous leukemia) and SH-SY5Y (human neuroblastoma) cells using a Cell Titer Glo 2.0 assay.
Cells were plated at 500 cells/well (K562 cells) in 45 μL of IMDM supplemented with 10% FBS in a 384-well opaque plate. Wells containing only medium were used as a blank control. Test compounds (e.g., compounds of Formula (I), (II), or (III)) were first serially diluted in DMSO then diluted 1:100 with IMDM+10% FBS. The final concentration of DMSO was 0.1% in each well. The cells were incubated for 72 hours at 37° C. and 5% CO2 before assaying with Cell Titer Glo 2.0 reagent.

Row | Structure (SMILES) | IC50 (Target C mRNA) | IC50 (HiBiT-tagged MYB protein) | IC50 (HiBiT-tagged HTT protein) | IC50 (Target C) | Viability (K562 cells)
1 | CCNC1CCN(c2ccc(C(=O)Nc3cc(F)c4nc(C)cn4c3)c3nccnc23)CC1 [Compound 191, 8-[4-(ethylamino)piperidin-1-yl]-N-{8-fluoro-2-methylimidazo[1,2-a]pyridin-6-yl}quinoxaline-5-carboxamide] | > 10000 nM | < 100 nM | 100 to 1000 nM | 1000 to 10000 nM | B (B represents 100-1000 nM)
2 | CNCC1CCN(c2ccc(C(=O)Nc3cc(F)c4nc(C)cn4c3)c3nccnc23)CC1 [Compound 192, N-{8-fluoro-2-methylimidazo[1,2-a]pyridin-6-yl}-8-{4-[(methylamino)methyl]piperidin-1-yl}quinoxaline-5-carboxamide trifluoroacetate] | 1000 to 10000 nM | 1000 to 10000 nM | 1000 to 10000 nM | 1000 to 10000 nM | C (C represents 1000-9999 nM)
3 | CNC1CCN(c2ccc(C(=O)Nc3cc(F)c4nc(C)cn4c3)c3nc(C)ccc23)C1 (stereo not drawn) [Compound 196, N-{8-fluoro-2-methylimidazo[1,2-a]pyridin-6-yl}-2-methyl-5-[3-(methylamino)pyrrolidin-1-yl]quinoline-8-carboxamide 2,2,2-trifluoroacetate] | 1000 to 10000 nM | < 100 nM | 1000 to 10000 nM | 1000 to 10000 nM | A (A represents <100 nM)
4 | Cc1cnc2c(N3CCNCC3)ccc(C(=O)Nc3cc(F)c4nc(C)cn4c3)c2n1 [Compound 197, N-{8-fluoro-2-methylimidazo[1,2-a]pyridin-6-yl}-3-methyl-8-(piperazin-1-yl)quinoxaline-5-carboxamide; trifluoroacetic acid] | > 10000 nM | < 100 nM | 100 to 1000 nM | 1000 to 10000 nM | C (C represents 1000-9999 nM)
5 | COCCOc1cc2c(N3CCNCC3)ccc(C(=O)Nc3cc(F)c4nc(C)cn4c3)c2nn1 [Compound 199, N-{8-fluoro-2-methylimidazo[1,2-a]pyridin-6-yl}-3-(2-methoxyethoxy)-5-(piperazin-1-yl)cinnoline-8-carboxamide] | > 10000 nM | < 100 nM | 1000 to 10000 nM | 1000 to 10000 nM | B (B represents 100-1000 nM)
6 | Cc1cnc2c(N3CCC(N(C)C)CC3)ccc(C(=O)Nc3cc(F)c4nc(C)cn4c3)c2n1 [Compound 200, 8-[4-(dimethylamino)piperidin-1-yl]-N-{8-fluoro-2-methylimidazo[1,2-a]pyridin-6-yl}-3-methylquinoxaline-5-carboxamide] | 100 to 1000 nM | < 100 nM | < 100 nM | 100 to 1000 nM | B (B represents 100-1000 nM)
7 | CNC1CCN(c2ccc(C(=O)Nc3cc(F)c4nc(C)cn4c3)c3nc(OC)cnc23)C1 (stereo not drawn) [Compound 202, N-{8-fluoro-2-methylimidazo[1,2-a]pyridin-6-yl}-3-methoxy-8-[3-(methylamino)pyrrolidin-1-yl]quinoxaline-5-carboxamide; bis(trifluoroacetic acid)] | > 10000 nM | < 100 nM | 1000 to 10000 nM | 1000 to 10000 nM | A (A represents <100 nM)
8 | CN[C@@H]1CCN(c2ccc(C(=O)Nc3cc(F)c4nc(C)cn4c3)c3nc(OC)cnc23)C1 [Compound 204, (R)—N-{8-fluoro-2-methylimidazo[1,2-a]pyridin-6-yl}-3-methoxy-8-[3-(methylamino)pyrrolidin-1-yl]quinoxaline-5-carboxamide; trifluoroacetic acid] | > 10000 nM | 100 to 1000 nM | 1000 to 10000 nM | 1000 to 10000 nM | A (A represents <100 nM)
9 | COc1cnc2c(N3C[C@@H](C)N[C@@H](C)C3)ccc(C(=O)Nc3cc(F)c4nc(C)cn4c3)c2n1 [Compound 205, 8-[(3R,5S)-3,5-dimethylpiperazin-1-yl]-N-{8-fluoro-2-methylimidazo[1,2-a]pyridin-6-yl}-3-methoxyquinoxaline-5-carboxamide; trifluoroacetic acid] | 100 to 1000 nM | < 100 nM | 100 to 1000 nM | 100 to 1000 nM | B (B represents 100-1000 nM)

From patent US20240409536A1, “COMPOUNDS AND METHODS FOR MODULATING SPLICING” (REMIX THERAPEUTICS INC., priority 2021, published 2024)
